Measurements: PMC5612656, “In vitro and in vivo effects of 2,4 diaminoquinazoline inhibitors of the decapping scavenger enzyme DcpS: Context-specific modulation of SMN transcript levels” (PLoS ONE, 2017)

Legend:
[1] = system: Renilla luciferase driven by the CMV promoter; assay: Reporter gene assay, CMV-driven Renilla luciferase; format: cell-based; conditions: 24 hrs
Procedure: The SMN2 reporter cell line was cultured in high-glucose DMEM supplemented with 10% (v/v) fetal bovine serum (FBS) and 1X Penicillin/Streptomycin. Reporter cells media was supplemented with hygromycin during maintenance. All cells were maintained at 37°C and […]. After seeding in 96-well white tissue culture plates at 25,000 per well, cells were incubated overnight before being exposed to different doses of compounds or DMSO for 24 hrs. The final DMSO concentration was kept constant at 0.1% (v/v). Firefly and renilla luciferase expression were assayed with DualGlo (Promega E2920) and measured on a PHERAstar FS microplate reader (BMG Labtech). Relative light units are normalized to DMSO control and expressed as a percentage.

2B/- SMA mice [2] = conditions: cited from earlier work
SMN protein = SMN protein by Western blot in SMA cells (fibroblasts, lymphoblasts, iPS-derived neural progenitor cells); format: cell-based, human; conditions: 24 hours to 7 days
Procedure: Lysates were incubated at 95°C for 5 minutes and cleared at 14,000 RPM for 15 minutes. Cleared lysates were quantified by BCA assay. A total of 5 μg of each lysate was mixed with NuPage LDS sample buffer with […] and loaded and separated on a NuPage 10% Bis-Tris gel. Proteins were transferred to 0.2 micron nitrocellulose using the BioRad Turbo Transfer system.

[3] = Plasma drug levels after P4-P16 dosing; conditions: FVB/N background, mouse, ip
Source text: Personnel conducting studies followed the approved standard operating procedures for daily monitoring, dosing, weaning and euthanasia according to the approved study protocol. […] Line maintenance was maintained by interbreeding of the congenic line and every 4th generation mice were outbred to wild type FBV/N mice (jax # 001800) to reduce the possibility of new mutations within the line. Smn 2B mice were internally developed and maintained in the DiDonato laboratory. To generate the SMA mice used in this study an intercross between Smn 2B/2B and Smn +/- mice was performed. This generated litters in which 50% of the offspring were control (2B/+) and 50% SMA (2B/-). The day of birth was considered to be P0. If pups were born after 3pm, the following day was considered P0. At P1, pups were counted. If greater than 10 pups to a cage, pups were randomly chosen and moved to another cage to increase litter size, culled to reduce litter size or genotyped at P1 and culled at P2 to reduce litter size to 10 or fewer pups. Thereafter, no culling of pups was performed for drug studies. Individual mice were genotyped from DNA obtained from tail snips by polymerase chain reaction (PCR). All mice were weaned at P21 and separated into male and female cages. […] For the PK single dose studies a single ip injection was used. […] Body weights were recorded daily in the AM and dosing volume was adjusted accordingly. […]

N2a cells miRNA = assay: miRNA RNA-Seq of N2a cells; format: cell-based, mouse; conditions: approximately 700 detectable
Procedure: Cells were then pelleted and lysed in RLT and the RNA was purified according to the protocol for the Qiagen miRNeasy kit to separate and enrich small RNA and large (>200 nt) fractions separately. […] RNA quality was also validated using qPCR for DcpS responsive genes. RNA fractions were used for cDNA library preparation which was performed using Truseq mRNA v2 reagents or TailorMix miRNA reagents (RS-122-2101 Illumina, San Diego CA, USA and TM302 […], Fremont CA, USA). Libraries were run on a Nextseq 500 (Illumina) using a paired-end run (2x75bp) generating ~60 million reads per library for the mRNA-seq and 1x75bp generating ~5 million reads per library for the miRNA-seq. […] The reads were first mapped to mouse miRNAs using Bowtie without allowing for mismatches. Instead of discarding the remaining reads, we explored the possibilities of RNA editing to include potential isomiRs. These reads were mapped to miRNAs that have at most 1 base mismatch, a substitution at the 5' or 3' ends, or have 1 or 2 extra bases at either ends. […] Reads mapping to protein coding exons and other small RNAs were removed prior to mapping to miRNAs. […] We merged the counts of reads identical to a miR and those mapping to isomeric forms as they are found to have identical/very similar functions. […] The counts were normalized and analyzed using EdgeR [19] packages in R-Bioconductor.

2B/- SMA mice [4] = assay: Combined 55° negative geotaxis/climb test in 2B/- SMA mice; format: in vivo, mouse
[5] = system: SMN transcripts in SMA-derived lymphoblasts; assay: SMN transcripts by ddPCR in SMA-derived lymphoblasts; format: cell-based, human
[6] = system: Smn transcripts in spinal cord, skeletal muscle, liver; assay: Smn transcripts in mouse tissues by ddPCR; format: in vivo
Source text: At P1, pups were counted.

[7] = system: SMN transcripts in HEK-293T cells; assay: SMN transcripts by ddPCR in HEK-293T cells; conditions: HEK293T cells
[8] = P16, Fisher's exact test P-value = 0.0708

## Nc1nc(N)c2c(OCC3CCN(Cc4c(Cl)cccc4Cl)CC3)cccc2n1 [RG3039]
[1]
  effect on CMV-driven Renilla luciferase activity: strong effect
2B/- SMA mice [2]
  Gems in nuclear compartment of choline acetyltransferase-positive spinal cord neurons: reported to increase
  SMN protein levels in the CNS or peripheral tissues: absence of any change in SMN protein levels
  survival, motor function, neuromuscular junction architecture and electrophysiology: improve survival, motor function, neuromuscular junction architecture and electrophysiology
  tissue DcpS activity: profound and prolonged inhibition
SMN protein
  SMN protein: in no experimental condition tested were we able to detect an increase in SMN protein
[3]
  concentration at 12 h: 4.24 ± 1.13 nM
N2a cells miRNA
  miR species differentially regulated by RG3039 but not PF-06802336: no miR species
2B/- SMA mice [4]; 2B/- SMA mice at P16, combined sexes
  simultaneous pass rate, 55° negative geotaxis and climb test: about 78%
2B/- SMA mice [4]; [8]
  improvement in ability to pass the combined assay over vehicle SMA mice: ~40%
  statistical significance of improvement over vehicle SMA mice in combined test: showed improvement over vehicle SMA mice that did not reach statistical significance
[5]; active DAQ-DcpSi vs 7-methyl analogues
  changes in SMN transcripts: modest changes in SMN transcripts
[5]; example experiment of Fig 5
  SMNΔ7 transcripts: no decrease in SMNΔ7 transcripts
[6]; 2B/- SMA mice, P4-P16 BID i.p.
  Smn transcripts (exons 5/6, exons 7/8, SmnΔ7) in tissues: significant increases in Smn transcripts in all tissues
[6]; 2B/- mice
  SmnΔ7 transcripts in spinal cord: trended to increase
[7]; 8 or 24hr
  SMN2 transcript increase at later time points: much reduced or absent
[7]; after 4h of treatment
  increase in SMN2 transcript: ~ 20%
